# US10076505B2, “Inhalation formulations of Treprostinil” (priority 2003, dated 2018)
# Tests used:
# sheep = assay: Intravenous and aerosolized UT-15 dose response during U44069 induced pulmonary hypertension (Example V); assay type: in vivo; conditions: for left atrial pressure: all three delivery rates
# Excerpt: Sheep were used as the animal model of choice for these experiments for a number of reasons. First is the docile nature of sheep. They will stand quietly in metabolic cages without having to utilize tranquilizing drugs, which have the potential to complicate experimental results. Second, sheep are large enough to allow direct measurement of CO, PPA, PLA, PCV, and PSYS. Sheep are also large enough to allow direct aerosolization of substances into the lung via trachoestomy thereby preventing swallowing of drugs and thus eliminating a possible secondary route of administration of UT-15. Third, sheep can tolerate a great amount of instrumentation with little or no discomfort. Fourth, sheep have been utilized for several years as an animal model of pulmonary arterial hypertension and thus, there is a great amount of historical data with which to compare the results. […] The reasons for using U44069 are that it is a very potent pulmonary vasoconstrictor, its characteristics are very similar to endogenously formed thromboxane A2, and it can be titrated to induce the desired degree of pulmonary vasoconstriction. U44069 was mixed with sterile normal saline immediately prior to being used and was protected from light by wrapping the solution with aluminum foil. The concentration of U44069 was adjusted such that a minimal flow rate of 0.8 ml per min was being infused into the sheep. This was done because more concentrated U44069 would have to be infused at very low rates and often causes “pulses” of U44069 due to the infusion characteristics of roller pumps. The U44069 pulses cause vasoconstriction “spikes” and thus would create induce a non-steady-state. Six yearling sheep (3 males, 3 females; 21-37 kg) were fasted 18-24 hours and initially anesthetized with a short acting barbiturate (thiopental) to allow intubation of the sheep. Halothane gas anesthesia (1.5-2.5%) was then used for the surgical procedures. Via a left thoracotomy, a Transonic blood flow probe was placed around the main pulmonary artery, silastic catheters placed in the main pulmonary artery and left atrium. After approximately 7 days the sheep were reanesthetized and the left carotid artery cannulated, a Cordis Introducer Sheath inserted in the left jugular vein, and a tracheotomy made. The sheep were allowed to recover for another 3-5 days prior to experimentation. These sheep were used to allow measurement of pulmonary arterial pressure (PPA), left atrial pressure (PLA), central venous pressure (PCV), systemic arterial pressure (PSYS), heart rate (HR), and cardiac output (CO) after baseline measurements were made for a minimum of 30 minutes. Two separate experiments were conducted to determine the dose response effects of intravenously infused UT-15 and aerosolized UT-15 during U44069 induced pulmonary hypertension. After a 30 minute baseline was established, U44069 was infused intravenously at a rate of 1 ng per kg per min. For the intravenous administration of UT-15 and after allowing the sheep to achieve a steady-state for 30-60 minutes, a dose-response to intravenous UT-15 was similar to that set forth in Example IV. For the aerosolized administration of UT-15 and after allowing the sheep to achieve a steady-state for 30-60 minutes, a dose-response to intravenous UT-15 was similar to that set forth in Example IV. In each experimental protocol, UT-15 was administered to three sheep for 30 minutes and to the other three sheep for 60 minutes.
# Buerger's disease = assay: Case report: subcutaneous Treprostinil in severe Buerger's disease (Example IX); assay type: in vivo, human
# Procedure: At this point, subcutaneous Treprostinil therapy was administered to the patient. Treprostinil was delivered chronically by continuous subcutaneous infusion using a pager-sized ambulatory infusion pump (Medtronic Minimed 407C, Minneapolis, Minn.)). […] The patient is now on a maintenance dose of Treprostinil 12 ng/kg/min from 9 PM-9 AM every seventh day, with no drug for the next 7 days.
# digital ischemic lesions = assay: Subcutaneous Treprostinil in scleroderma patients with digital ischemic lesions (Example VII); assay type: in vivo, human; conditions: continuous subcutaneous infusion, 12 weeks, increasing dose
# Procedure: Scleroderma patients having at least one lesion (i.e., small sore or area of tissue gangrene) present on a hand or finger are dosed with increasing amounts of Treprostinil over 12 weeks. The medication is delivered by a small pump that is connected to a catheter placed under the skin. In this manner, increasing dosages of Treprostinil are administered to patients by chronic continuous subcutaneous infusion. Specifically, a 1.0 mg/mL formulation of Treprostinil sodium) (REMODULIN®) is administered subcutaneously using a standard micro-infusion, positive-pressure infusion pump designed for subcutaneous drug delivery (Mini-Med). Patients receive an initial dose of 2.5 ng/kg/min of study drug. […] After that, the dose is raised by 2.50 ng/kg/min each week until not tolerated or once a target dose is reached. Dosing is increased weekly unless not tolerated by the patient. […] One example of a target dose is 15 ng/kg/min. The minimum dose is usually not less than 0.625 ng/kg/min.
# [1] = during U44069 infusion, aerosol
# [2] = during U44069 infusion, aerosolized
# [3] = during U44069 infusion, intravascular
# [4] = during U44069 infusion, intravenous
smiles,measurement,setting,value
"CCCCC[C@H](O)CC[C@@H]1[C@H]2Cc3cccc(OCC(=O)O)c3C[C@H]2C[C@H]1O [UT-15, 9-deoxy-2′,9-alpha-methano-3-oxa-4,5,6-trinor-3,7-(1′,3′-interphenylene)-13,14-dihydro-prostaglandin F1]",cardiac output,sheep; [1],no effect
same,time at which UT-15 began to attenuate the increase in PVR,sheep; [1],4 to 5 min
same,left atrial pressure,sheep; [1],increased above baseline
same,heart rate,sheep; [2],no effect
same,off response (PVR),sheep; [2],43 min
same,systemic arterial pressure,sheep; [2],no statistical differences
same,PPA,"sheep; during U44069 infusion, aerosolized, 500 and 1000 ng per kg per min",back to normal values
same,PVR relative to baseline PVR,"sheep; during U44069 infusion, aerosolized, any of the three delivery rates",no significant difference
same,PPA relative to U44069 value,sheep; [3],decrease significantly
same,pulmonary vascular driving pressure (PPA-PLA),sheep; [3],unchanged
same,off response (PVR),sheep; [4],12 min
same,systemic arterial pressure,sheep; [4],no statistical differences
same,time at which UT-15 began to attenuate the increase in PVR,sheep; [4],4 to 5 min
same,central venous pressure,"sheep; during U44069 infusion, intravenous, 500 and 1000 ng per kg per min",different from the U44069 values
same,heart rate,"sheep; during U44069 infusion, intravenous, 500 and 1000 ng per kg per min different from U44069 values",increase above the values during U44069 conditions
same,cardiac output,"sheep; during U44069 infusion, intravenous, significant at 500 and 100 ng per kg per min",dose-response increase
same,left atrial pressure,"sheep; during U44069 infusion, intravenously infused",significant decrease from the U44069 value
same,U44069-induced increase in PVR,"sheep; intravenously infused, 500 and 1000 ng per kg per min",significantly attenuated
same,dose limiting side effects,Buerger's disease; in vivo,diarrhea and jaw pain
same,Doppler studies,Buerger's disease; one patient,improvement in pulse volume recording wave form
same,return of ischemic symptoms after attempts to discontinue,Buerger's disease; one patient,≤ 1 week
same,maximum tolerated dose,"Buerger's disease; one patient, continuous subcutaneous infusion",12.5 ng/kg/min
same,ulcer on right middle finger,"Buerger's disease; one patient, maintenance 12 ng/kg/min",complete healing
same,patient-reported comfort and activities of daily living,"Buerger's disease; one patient, sc infusion 12.5 ng/kg/min",improved comfort and increased ability to participate in activities of daily living
same,lesions present before treatment,digital ischemic lesions,"reduction in the number, size and severity"
same,new lesions associated with scleroderma,digital ischemic lesions,fewer new lesions
